From the supplement of paper PMC10307832

What was measured:
Assay in all cases: relative viability (nuclei count vs DMSO), 5 days (fraction); higher = more cells survive
NCI-H2405 = system: NCI-H2405
Outline: (§1)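 For relative viability, nuclei counts in treated wells were divided by those in vehicle wells. Lung cancer cell lines had been pin-tool dosed in 1536-well plates the day after seeding and cultured for 5 days, then fixed and stained in one step (final 0.05% Triton X-100, 1% formaldehyde, 1 ug/ml Hoechst) and imaged at 4×. Doses were one drug alone or a fixed anchor-drug dose plus five library-drug doses (not always all listed) in √10 steps, and values are duplicate-plate medians.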

LXF-289 = system: LXF-289
Outline: as §1

NCI-H1650 = system: NCI-H1650
Outline: as §1

CAL-12T = system: CAL-12T
Outline: as §1

SK-LU-1 = system: SK-LU-1
Outline: as §1

NCI-H647 = system: NCI-H647
Outline: as §1

NCI-H322M = system: NCI-H322M
Outline: as §1

NCI-H2228 = system: NCI-H2228
Outline: as §1

NCI-H1437 = system: NCI-H1437
Outline: as §1

NCI-H1944 = system: NCI-H1944
Outline: as §1

NCI-H1792 = system: NCI-H1792
Outline: as §1

LCLC-103H = system: LCLC-103H
Outline: as §1

BEN = system: BEN
Outline: as §1

HCC-827 = system: HCC-827
Outline: as §1

LCLC-97TM1 = system: LCLC-97TM1
Outline: as §1

RERF-LC-KJ = system: RERF-LC-KJ
Outline: as §1

201T = system: 201T
Outline: as §1

NCI-H727 = system: NCI-H727
Outline: as §1

NCI-H3122 = system: NCI-H3122
Outline: as §1

NCI-H1793 = system: NCI-H1793
Outline: as §1

NCI-H2087 = system: NCI-H2087
Outline: as §1

NCI-H1395 = system: NCI-H1395
Outline: as §1

## CCN(CC)CCCCNc1ncc2cc(-c3cc(OC)cc(OC)c3)c(NC(=O)NC(C)(C)C)nc2n1 + CS(=O)(=O)N1CCN(Cc2cc3nc(-c4cccc5[nH]ncc45)nc(N4CCOCC4)c3s2)CC1 [Pictilisib] (partner 1 µM)
NCI-H2405; first compound 0.01 µM
  relative viability: 0.361
NCI-H2405; first compound 0.03162 µM
  relative viability: 0.412
NCI-H2405; first compound 0.1 µM
  relative viability: 0.586
NCI-H2405; first compound 0.3162 µM
  relative viability: 0.531
NCI-H2405; first compound 1 µM
  relative viability: 0.404
LXF-289; first compound 0.01 µM
  relative viability: 0.769
LXF-289; first compound 0.03162 µM
  relative viability: 0.874
LXF-289; first compound 0.1 µM
  relative viability: 0.792
LXF-289; first compound 0.3162 µM
  relative viability: 0.676
LXF-289; first compound 1 µM
  relative viability: 0.386
NCI-H1650; first compound 0.01 µM
  relative viability: 0.542
NCI-H1650; first compound 0.03162 µM
  relative viability: 0.464
NCI-H1650; first compound 0.1 µM
  relative viability: 0.423
NCI-H1650; first compound 0.3162 µM
  relative viability: 0.477
NCI-H1650; first compound 1 µM
  relative viability: 0.22
CAL-12T; first compound 0.03162 µM
  relative viability: 0.322
CAL-12T; first compound 0.1 µM
  relative viability: 0.386
CAL-12T; first compound 0.3162 µM
  relative viability: 0.6
CAL-12T; first compound 1 µM
  relative viability: 0.397
SK-LU-1; first compound 0.01 µM
  relative viability: 0.483
SK-LU-1; first compound 0.03162 µM
  relative viability: 0.427
SK-LU-1; first compound 0.1 µM
  relative viability: 0.526
SK-LU-1; first compound 0.3162 µM
  relative viability: 0.527
SK-LU-1; first compound 1 µM
  relative viability: 0.393
NCI-H647; first compound 0.03162 µM
  relative viability: 0.471
NCI-H647; first compound 0.1 µM
  relative viability: 0.486
NCI-H647; first compound 0.3162 µM
  relative viability: 0.465
NCI-H647; first compound 1 µM
  relative viability: 0.348
NCI-H322M; first compound 0.01 µM
  relative viability: 0.573
NCI-H322M; first compound 0.03162 µM
  relative viability: 0.47
NCI-H322M; first compound 0.1 µM
  relative viability: 0.499
NCI-H322M; first compound 0.3162 µM
  relative viability: 0.566
NCI-H322M; first compound 1 µM
  relative viability: 0.456
NCI-H2228; first compound 0.01 µM
  relative viability: 0.441
NCI-H2228; first compound 0.03162 µM
  relative viability: 0.311
NCI-H2228; first compound 0.1 µM
  relative viability: 0.353
NCI-H2228; first compound 0.3162 µM
  relative viability: 0.539
NCI-H2228; first compound 1 µM
  relative viability: 0.246
NCI-H1437; first compound 0.01 µM
  relative viability: 0.544
NCI-H1437; first compound 0.03162 µM
  relative viability: 0.482
NCI-H1437; first compound 0.1 µM
  relative viability: 0.424
NCI-H1437; first compound 0.3162 µM
  relative viability: 0.395
NCI-H1437; first compound 1 µM
  relative viability: 0.392
NCI-H1944; first compound 0.01 µM
  relative viability: 0.362
NCI-H1944; first compound 0.03162 µM
  relative viability: 0.327
NCI-H1944; first compound 0.1 µM
  relative viability: 0.367
NCI-H1944; first compound 0.3162 µM
  relative viability: 0.352
NCI-H1944; first compound 1 µM
  relative viability: 0.341
NCI-H1792; first compound 0.01 µM
  relative viability: 0.249
NCI-H1792; first compound 0.03162 µM
  relative viability: 0.282
NCI-H1792; first compound 0.1 µM
  relative viability: 0.241
NCI-H1792; first compound 0.3162 µM
  relative viability: 0.265
NCI-H1792; first compound 1 µM
  relative viability: 0.225
LCLC-103H; first compound 0.01 µM
  relative viability: 0.551
LCLC-103H; first compound 0.03162 µM
  relative viability: 0.661
LCLC-103H; first compound 0.1 µM
  relative viability: 0.595
LCLC-103H; first compound 0.3162 µM
  relative viability: 0.553
LCLC-103H; first compound 1 µM
  relative viability: 0.443
BEN; first compound 0.01 µM
  relative viability: 0.587
BEN; first compound 0.03162 µM
  relative viability: 0.516
BEN; first compound 0.1 µM
  relative viability: 0.525
BEN; first compound 0.3162 µM
  relative viability: 0.59
BEN; first compound 1 µM
  relative viability: 0.485
HCC-827; first compound 0.01 µM
  relative viability: 1.03
HCC-827; first compound 0.03162 µM
  relative viability: 0.992
HCC-827; first compound 0.1 µM
  relative viability: 0.886
HCC-827; first compound 0.3162 µM
  relative viability: 1.06
HCC-827; first compound 1 µM
  relative viability: 1.02
LCLC-97TM1; first compound 0.03162 µM
  relative viability: 0.18
LCLC-97TM1; first compound 0.1 µM
  relative viability: 0.162
LCLC-97TM1; first compound 0.3162 µM
  relative viability: 0.16
LCLC-97TM1; first compound 1 µM
  relative viability: 0.178
RERF-LC-KJ; first compound 0.01 µM
  relative viability: 0.695
RERF-LC-KJ; first compound 0.03162 µM
  relative viability: 0.639
RERF-LC-KJ; first compound 0.1 µM
  relative viability: 0.528
RERF-LC-KJ; first compound 0.3162 µM
  relative viability: 0.671
RERF-LC-KJ; first compound 1 µM
  relative viability: 0.526
201T; first compound 0.01 µM
  relative viability: 0.741
201T; first compound 0.03162 µM
  relative viability: 0.663
201T; first compound 0.1 µM
  relative viability: 0.775
201T; first compound 0.3162 µM
  relative viability: 0.677
201T; first compound 1 µM
  relative viability: 0.573
NCI-H727; first compound 0.01 µM
  relative viability: 0.413
NCI-H727; first compound 0.03162 µM
  relative viability: 0.417
NCI-H727; first compound 0.1 µM
  relative viability: 0.362
NCI-H727; first compound 0.3162 µM
  relative viability: 0.627
NCI-H727; first compound 1 µM
  relative viability: 0.41
NCI-H3122; first compound 0.01 µM
  relative viability: 0.618
NCI-H3122; first compound 0.03162 µM
  relative viability: 0.598
NCI-H3122; first compound 0.1 µM
  relative viability: 0.674
NCI-H3122; first compound 0.3162 µM
  relative viability: 0.64
NCI-H3122; first compound 1 µM
  relative viability: 0.592
NCI-H1793; first compound 0.01 µM
  relative viability: 0.286
NCI-H1793; first compound 0.1 µM
  relative viability: 0.322
NCI-H1793; first compound 0.3162 µM
  relative viability: 0.233
NCI-H1793; first compound 1 µM
  relative viability: 0.224
NCI-H2087; first compound 0.01 µM
  relative viability: 0.784
NCI-H2087; first compound 0.03162 µM
  relative viability: 0.827
NCI-H2087; first compound 0.1 µM
  relative viability: 0.918
NCI-H2087; first compound 0.3162 µM
  relative viability: 0.961
NCI-H2087; first compound 1 µM
  relative viability: 0.984
NCI-H1395; first compound 0.03162 µM
  relative viability: 0.486
NCI-H1395; first compound 0.1 µM
  relative viability: 0.949
NCI-H1395; first compound 0.3162 µM
  relative viability: 0.479
NCI-H1395; first compound 1 µM
  relative viability: 0.346
